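Assay format: 96-well plates, 48-hour exposure. GI50: concentration for 50% inhibition of growth. TGI: concentration producing complete growth inhibition.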
Tests used:
Experiment in all cases: inhibition of tumour cell growth, NCI panel, 48 h
T-47D breast = test system: T-47D breast
SK-MEL-2 melanoma = test system: SK-MEL-2 melanoma
CAKI-1 renal = test system: CAKI-1 renal
OVCAR-3 ovarian = test system: OVCAR-3 ovarian
M14 melanoma = test system: M14 melanoma
MDA-MB-435 = test system: MDA-MB-435
SF-295 CNS = test system: SF-295 CNS
HOP-92 NSCLC = test system: HOP-92 NSCLC
U251 CNS = test system: U251 CNS
SN12C renal = test system: SN12C renal
UACC-62 melanoma = test system: UACC-62 melanoma
HCC-2998 colon = test system: HCC-2998 colon
NCI/ADR-RES ovarian = test system: NCI/ADR-RES ovarian
TK-10 renal = test system: TK-10 renal
OVCAR-4 ovarian = test system: OVCAR-4 ovarian
MCF7 breast = test system: MCF7 breast
LOX IMVI melanoma = test system: LOX IMVI melanoma
RPMI-8226 leukemia = test system: RPMI-8226 leukemia
MDA-MB-231 breast = test system: MDA-MB-231 breast
UACC-257 melanoma = test system: UACC-257 melanoma
EKVX NSCLC = test system: EKVX NSCLC
IGROV1 ovarian = test system: IGROV1 ovarian
CCRF-CEM leukemia = test system: CCRF-CEM leukemia
HCT-15 colon = test system: HCT-15 colon
NCI-H522 lung = test system: NCI-H522 lung
UO-31 renal = test system: UO-31 renal
A498 renal = test system: A498 renal
HS 578T breast = test system: HS 578T breast
SK-MEL-28 melanoma = test system: SK-MEL-28 melanoma
SW-620 colon = test system: SW-620 colon
MALME-3M melanoma = test system: MALME-3M melanoma
DU-145 prostate = test system: DU-145 prostate
SR leukemia = test system: SR leukemia
OVCAR-5 ovarian = test system: OVCAR-5 ovarian
HT29 colon = test system: HT29 colon
KM12 colon = test system: KM12 colon
RXF 393 renal = test system: RXF 393 renal
NCI-H460 lung = test system: NCI-H460 lung
HCT-116 colon = test system: HCT-116 colon
SF-539 CNS = test system: SF-539 CNS
NCI-H23 lung = test system: NCI-H23 lung
ACHN renal = test system: ACHN renal
PC-3 prostate = test system: PC-3 prostate
SK-OV-3 ovarian = test system: SK-OV-3 ovarian
SF-268 CNS = test system: SF-268 CNS
COLO 205 colon = test system: COLO 205 colon
SK-MEL-5 melanoma = test system: SK-MEL-5 melanoma
SNB-75 CNS = test system: SNB-75 CNS
786-0 renal = test system: 786-0 renal
SNB-19 CNS = test system: SNB-19 CNS
OVCAR-8 ovarian = test system: OVCAR-8 ovarian
A549 NSCLC = test system: A549 NSCLC
BT-549 breast = test system: BT-549 breast
NCI-H226 lung = test system: NCI-H226 lung
MOLT-4 leukemia = test system: MOLT-4 leukemia
HOP-62 NSCLC = test system: HOP-62 NSCLC
K-562 leukemia = test system: K-562 leukemia
HL-60(TB) leukemia = test system: HL-60(TB) leukemia

SMILES: O=c1[nH]c2cc(Cl)c(Cl)cc2n2cc3ccccc3c12
- GI50 (T-47D breast): 30.8 µM
- TGI (T-47D breast): 75.5 µM
- GI50 (SK-MEL-2 melanoma): 24.9 µM
- TGI (SK-MEL-2 melanoma): 54 µM
- GI50 (CAKI-1 renal): 20.6 µM
- TGI (CAKI-1 renal): 34.9 µM
- GI50 (OVCAR-3 ovarian): 18.4 µM
- TGI (OVCAR-3 ovarian): 32.4 µM
- GI50 (M14 melanoma): 23 µM
- TGI (M14 melanoma): 39.7 µM
- GI50 (MDA-MB-435): 16.9 µM
- TGI (MDA-MB-435): 30.5 µM
- GI50 (SF-295 CNS): 16.2 µM
- TGI (SF-295 CNS): 29.9 µM
- GI50 (HOP-92 NSCLC): 18.4 µM
- TGI (HOP-92 NSCLC): 34.7 µM
- GI50 (U251 CNS): 16.4 µM
- TGI (U251 CNS): 30 µM
- GI50 (SN12C renal): 15.7 µM
- TGI (SN12C renal): 29.4 µM
- GI50 (UACC-62 melanoma): 16.5 µM
- TGI (UACC-62 melanoma): 30.1 µM
- GI50 (HCC-2998 colon): 0.813 µM
- TGI (HCC-2998 colon): 18.6 µM
- GI50 (NCI/ADR-RES ovarian): 17.7 µM
- TGI (NCI/ADR-RES ovarian): 31.6 µM
- GI50 (TK-10 renal): 16.8 µM
- TGI (TK-10 renal): 30.4 µM
- GI50 (OVCAR-4 ovarian): 20.3 µM
- TGI (OVCAR-4 ovarian): 49.8 µM
- GI50 (MCF7 breast): 21.4 µM
- TGI (MCF7 breast): 39.5 µM
- GI50 (LOX IMVI melanoma): 17.3 µM
- TGI (LOX IMVI melanoma): 31 µM
- GI50 (RPMI-8226 leukemia): 22.3 µM
- TGI (RPMI-8226 leukemia): 49.2 µM
- GI50 (MDA-MB-231 breast): 17.2 µM
- TGI (MDA-MB-231 breast): 32.7 µM
- GI50 (UACC-257 melanoma): 20.3 µM
- TGI (UACC-257 melanoma): 48.6 µM
- GI50 (EKVX NSCLC): 21.9 µM
- TGI (EKVX NSCLC): 43.5 µM
- GI50 (IGROV1 ovarian): 17.4 µM
- TGI (IGROV1 ovarian): 31.2 µM
- GI50 (CCRF-CEM leukemia): 22.1 µM
- TGI (CCRF-CEM leukemia): 48.9 µM
- GI50 (HCT-15 colon): 16.6 µM
- TGI (HCT-15 colon): 30.2 µM
- GI50 (NCI-H522 lung): 10.2 µM
- TGI (NCI-H522 lung): 31 µM
- GI50 (UO-31 renal): 17.9 µM
- TGI (UO-31 renal): 32.8 µM
- GI50 (A498 renal): 15.8 µM
- TGI (A498 renal): 29.9 µM
- GI50 (HS 578T breast): 20.1 µM
- TGI (HS 578T breast): 53 µM
- GI50 (SK-MEL-28 melanoma): 33 µM
- TGI (SK-MEL-28 melanoma): > 100 µM
- GI50 (SW-620 colon): 15.8 µM
- TGI (SW-620 colon): 29.2 µM
- GI50 (MALME-3M melanoma): 17.1 µM
- TGI (MALME-3M melanoma): 32.7 µM
- GI50 (DU-145 prostate): 18 µM
- TGI (DU-145 prostate): 31.8 µM
- GI50 (SR leukemia): 17.3 µM
- TGI (SR leukemia): 39 µM
- GI50 (OVCAR-5 ovarian): 17.1 µM
- TGI (OVCAR-5 ovarian): 30.8 µM
- GI50 (HT29 colon): 29 µM
- TGI (HT29 colon): > 100 µM
- GI50 (KM12 colon): 17.3 µM
- TGI (KM12 colon): 31.1 µM
- GI50 (RXF 393 renal): 17.4 µM
- TGI (RXF 393 renal): 31.2 µM
- GI50 (NCI-H460 lung): 18.8 µM
- TGI (NCI-H460 lung): 32.8 µM
- GI50 (HCT-116 colon): 21 µM
- TGI (HCT-116 colon): 35.3 µM
- GI50 (SF-539 CNS): 19.1 µM
- TGI (SF-539 CNS): 39.5 µM
- GI50 (NCI-H23 lung): 17.2 µM
- TGI (NCI-H23 lung): 30.9 µM
- GI50 (ACHN renal): 15.5 µM
- TGI (ACHN renal): 28.9 µM
- GI50 (PC-3 prostate): 17.3 µM
- TGI (PC-3 prostate): 31.1 µM
- GI50 (SK-OV-3 ovarian): 18 µM
- TGI (SK-OV-3 ovarian): 33.1 µM
- GI50 (SF-268 CNS): 23.7 µM
- TGI (SF-268 CNS): 42.6 µM
- GI50 (COLO 205 colon): 29.6 µM
- TGI (COLO 205 colon): > 100 µM
- GI50 (SK-MEL-5 melanoma): 19.9 µM
- TGI (SK-MEL-5 melanoma): 41.7 µM
- GI50 (SNB-75 CNS): 21.6 µM
- TGI (SNB-75 CNS): 53.3 µM
- GI50 (786-0 renal): 24.9 µM
- TGI (786-0 renal): 39.6 µM
- GI50 (SNB-19 CNS): 21.6 µM
- TGI (SNB-19 CNS): 56.6 µM
- GI50 (OVCAR-8 ovarian): 18.4 µM
- TGI (OVCAR-8 ovarian): 32.4 µM
- GI50 (A549 NSCLC): 18.9 µM
- TGI (A549 NSCLC): 34.5 µM
- GI50 (BT-549 breast): 26.5 µM
- TGI (BT-549 breast): 57.2 µM
- GI50 (NCI-H226 lung): 18.6 µM
- TGI (NCI-H226 lung): 35.9 µM
- GI50 (MOLT-4 leukemia): 18.7 µM
- TGI (MOLT-4 leukemia): 36.7 µM

SMILES: O=S(=O)(O)C1CCC(O)C2[N-]CCCC21.O=S(=O)(O)C1CCC(O)C2[N-]CCCC21.[Zn+2] (stereo unspecified)
- TGI (T-47D breast): > 100 µM
- TGI (SK-MEL-2 melanoma): > 100 µM
- TGI (CAKI-1 renal): > 100 µM
- TGI (OVCAR-3 ovarian): > 100 µM
- TGI (M14 melanoma): > 100 µM
- TGI (MDA-MB-435): > 100 µM
- TGI (SF-295 CNS): > 100 µM
- TGI (HOP-92 NSCLC): > 100 µM
- TGI (U251 CNS): > 100 µM
- TGI (SN12C renal): > 100 µM
- TGI (UACC-62 melanoma): > 100 µM
- TGI (HCC-2998 colon): > 100 µM
- TGI (NCI/ADR-RES ovarian): > 100 µM
- TGI (TK-10 renal): > 100 µM
- TGI (OVCAR-4 ovarian): > 100 µM
- TGI (HOP-62 NSCLC): > 100 µM
- TGI (MCF7 breast): > 100 µM
- TGI (LOX IMVI melanoma): > 100 µM
- TGI (RPMI-8226 leukemia): > 100 µM
- TGI (MDA-MB-231 breast): > 100 µM
- TGI (UACC-257 melanoma): > 100 µM
- TGI (EKVX NSCLC): > 100 µM
- TGI (IGROV1 ovarian): > 100 µM
- TGI (HCT-15 colon): > 100 µM
- TGI (NCI-H522 lung): > 100 µM
- TGI (UO-31 renal): > 100 µM
- TGI (A498 renal): > 100 µM
- TGI (HS 578T breast): > 100 µM
- TGI (SK-MEL-28 melanoma): > 100 µM
- TGI (SW-620 colon): > 100 µM
- TGI (MALME-3M melanoma): > 100 µM
- TGI (DU-145 prostate): > 100 µM
- TGI (SR leukemia): > 100 µM
- TGI (OVCAR-5 ovarian): > 100 µM
- TGI (K-562 leukemia): > 100 µM
- TGI (HT29 colon): > 100 µM
- TGI (KM12 colon): > 100 µM
- TGI (RXF 393 renal): > 100 µM
- TGI (NCI-H460 lung): > 100 µM
- TGI (HCT-116 colon): > 100 µM
- TGI (SF-539 CNS): > 100 µM
- TGI (HL-60(TB) leukemia): 51 µM
- TGI (ACHN renal): > 100 µM
- TGI (PC-3 prostate): > 100 µM
- TGI (SK-OV-3 ovarian): > 100 µM
- TGI (SF-268 CNS): > 100 µM
- TGI (COLO 205 colon): > 100 µM
- TGI (SK-MEL-5 melanoma): > 100 µM
- TGI (SNB-75 CNS): > 100 µM
- TGI (786-0 renal): > 100 µM
- TGI (SNB-19 CNS): > 100 µM
- TGI (OVCAR-8 ovarian): > 100 µM
- TGI (A549 NSCLC): > 100 µM
- TGI (BT-549 breast): > 100 µM
- TGI (NCI-H226 lung): > 100 µM
- TGI (MOLT-4 leukemia): > 100 µM

Source: PubChem BioAssay (NCI)
